We go through 15 compounds from patent US6737438B2, “Substituted 1,2,4-trioxanes useful as antimalarial agents and a process for the preparation thereof” (Council of Scientific and Industrial Research, priority 2002, dated 2004).

Data set [1] concerns multidrug resistant strain of Plasmodium yoelii Nigeriensis. Briefly: Antimalarial activity against multidrug resistant P. yoelii in swiss mice. Type of data set: in vivo. The settings on record: for % Suppression on Day 4: 4 consecutive days (day 0-3), parasitaemia vs vehicle control; for Cured/treated: observed till day 28.

The melting point is the temperature of the solid-liquid transition.

`C(=CC1COC(c2ccccc2)OO1)c1ccc(-c2ccccc2)cc1` (centres unmarked) displayed a melting point of 92 to 95 °C.

With `Clc1ccc(-c2ccc(C=CC3COC4(CCCC4)OO3)cc2)cc1` (centres unmarked), the melting point was 102 to 104 °C.

`Clc1ccc(-c2ccc(C=CC3COC4(CCCCC4)OO3)cc2)cc1` (centres unmarked) displayed a melting point of 96 to 98 °C.

For `C=C(c1ccc(C2CCCC2)cc1)C1COC2(CC3CCC2C3)OO1` (centres unmarked) [Trioxane 8a], the “% Suppression on Day 4” value in data set [1] (i.m., 96 mg/kg) was found to be 81.23%; in data set [1] (oral, 96 mg/kg), 100%. For the same compound, the Cured/treated in data set [1] (i.m., 96 mg/kg) is reported as 0/5; in data set [1] (oral, 96 mg/kg), 5/5.

`C=C(c1ccc(C2CCCCC2)cc1)C1COC2(CC3CCC2C3)OO1` (centres unmarked) [Trioxane 8b]: the “% Suppression on Day 4” value is 100% in data set [1] (i.m., 96 mg/kg) and 100% in data set [1] (oral, 48 mg/kg). Moreover, the Cured/treated is recorded as 3/5 in data set [1] (i.m., 96 mg/kg) and 6/6 in data set [1] (oral, 48 mg/kg).

Consider `C=C(c1ccc(C2CCCCCC2)cc1)C1COC2(CC3CCC2C3)OO1` (centres unmarked) [Trioxane 8c], for which the “% Suppression on Day 4” value turned out to be 43.55% in data set [1] (i.m., 96 mg/kg) and 100% in data set [1] (oral, 96 mg/kg). Moreover, the Cured/treated was 0/5 in data set [1] (i.m., 96 mg/kg) and 3/5 in data set [1] (oral, 96 mg/kg).

Turning to `C=C(c1ccc(-c2ccccc2)cc1)C1COC2(CC3CCC2C3)OO1` (centres unmarked) [Trioxane 8e], the “% Suppression on Day 4” value worked out at 100% in data set [1] (i.m., 96 mg/kg) and 100% in data set [1] (oral, 96 mg/kg). Besides, the Cured/treated in data set [1] (i.m., 96 mg/kg) was 1/4; in data set [1] (oral, 96 mg/kg), 4/4.

`C=C(c1ccc(-c2ccc(Br)cc2)cc1)C1COC2(CC3CCC2C3)OO1` (centres unmarked) [Trioxane 8f]: in data set [1] (i.m., 96 mg/kg), the “% Suppression on Day 4” value came to 100% and the Cured/treated was 0/5. Further, in data set [1] (oral, 96 mg/kg), the “% Suppression on Day 4” value is 100% and the Cured/treated is listed as 5/5.

`C=C(c1ccc(C2CCCC2)cc1)C1COC2(OO1)C1CC3CC(C1)CC2C3` (centres unmarked) [Trioxane 9a]: in data set [1] (i.m., 96 mg/kg), the “% Suppression on Day 4” value worked out at 81.23% and the Cured/treated is reported as 0/5. In addition, in data set [1] (oral, 96 mg/kg), the “% Suppression on Day 4” value is on record as 100% and the Cured/treated is 5/5.

Turning to `C=C(c1ccc(C2CCCCC2)cc1)C1COC2(OO1)C1CC3CC(C1)CC2C3` (centres unmarked) [Trioxane 9b], the “% Suppression on Day 4” value in data set [1] (i.m., 96 mg/kg) turned out to be 82.16%; in data set [1] (oral, 96 mg/kg) it was 100%. Further, the Cured/treated in data set [1] (i.m., 96 mg/kg) is 0/5; in data set [1] (oral, 96 mg/kg), 5/5.

Turning to `C=C(c1ccc(C2CCCCCC2)cc1)C1COC2(OO1)C1CC3CC(C1)CC2C3` (centres unmarked) [Trioxane 9c], in data set [1] (i.m., 96 mg/kg), the “% Suppression on Day 4” value came to 74.57% and the Cured/treated was 0/5. In addition, in data set [1] (oral, 96 mg/kg), the “% Suppression on Day 4” value is on record as 100% and the Cured/treated is recorded as 5/5.

For the compound `C=C(c1ccc(C2CCCCCCC2)cc1)C1COC2(OO1)C1CC3CC(C1)CC2C3` (centres unmarked) [Trioxane 9d], in data set [1] (i.m., 96 mg/kg), the “% Suppression on Day 4” value is on record as 60.12% and the Cured/treated is recorded as 0/5. Besides, in data set [1] (oral, 96 mg/kg), the “% Suppression on Day 4” value is recorded as 100% and the Cured/treated was 5/5.

Consider `C=C(c1ccc(-c2ccccc2)cc1)C1COC2(OO1)C1CC3CC(C1)CC2C3` (centres unmarked) [Trioxane 9e], for which the “% Suppression on Day 4” value stood at 100% in data set [1] (i.m., 96 mg/kg) and 100% in data set [1] (oral, 96 mg/kg). The Cured/treated in data set [1] (i.m., 96 mg/kg) is listed as 0/6; in data set [1] (oral, 96 mg/kg) it was 6/6.

Take `C=C(c1ccc(-c2ccc(Br)cc2)cc1)C1COC2(OO1)C1CC3CC(C1)CC2C3` (centres unmarked) [Trioxane 9f]: in data set [1] (i.m., 96 mg/kg), the “% Suppression on Day 4” value is given as 92.4% and the Cured/treated is on record as 2/5. Moreover, in data set [1] (oral, 48 mg/kg), the “% Suppression on Day 4” value turned out to be 100% and the Cured/treated is reported as 5/5.

Turning to `C=C(c1ccc(-c2ccc(Cl)cc2)cc1)C1COC2(OO1)C1CC3CC(C1)CC2C3` (centres unmarked) [Trioxane 9g], the “% Suppression on Day 4” value in data set [1] (i.m., 96 mg/kg) was determined as 100%. Also, in data set [1] (oral, 96 mg/kg), the “% Suppression on Day 4” value stood at 100% and the Cured/treated is given as 3/5.
